In US7172749B2, “Radiolabeled irreversible inhibitors of epidermal growth factor receptor tyrosine kinase and their use in radioimaging and radiotherapy” (priority 2001, dated 2007):
Where two headings read alike, the source gives them in different places.

Legend:
EGFR-TK = EGFR-TK (Homo sapiens, UniProt P00533); experiment: biochemical; conditions: 3 μM ATP
Method: All the following incubations were performed at room temperature and with constant shaking. […] The final volume for each well was 150 μl.
After removing the unbound m108, the plate was washed and PBS containing 5% milk (1% fat) was added for the blocking (25 minutes).
One aliquot of A431 cell lysate was thawed and added to the plate.
After 25 minutes, and without washing the plate, ATP/MnCl2 solution was added in each well. The final concentration was 3 μM ATP/5 mM MnCl2. In this step the temperature was kept at 26° C. and the plate was under constant shaking. The incubation with ATP/MnCl2 was for 5 minutes.
Then, to stop the phosphorylation reaction, EDTA was added (pH 8, final concentration in each well 20 mM) and after 1 minute all the plate was washed.
Afterward, polyclonal anti-phosphotyrosine serum (Sugen, Inc.) was added (dilution of antibody in TBST containing 5% milk). The incubation was for 45 minutes.

[1] = target: EGFR autophosphorylation in intact A431 cells (Homo sapiens, UniProt P00533); experiment: EGFR autophosphorylation inhibition rate measurements in intact A431 cells; assay type: cell-based; conditions: 30 nM inhibitor
Method: A431 cells (10^6) were seeded in 6-well plates and grown to 60–80% confluence in DMEM (high glucose) containing 10% fetal calf serum (FCS) and antibiotics at 37° C.
After the incubation, the medium was replaced with an inhibitor/FCS-free medium, the cells were kept at 37° C. for either 1 or 8 hours, stimulated thereafter with EGF and lysated as described hereinabove. The protein determination assay was then performed once with n=1 for each time point of the 1 hour post-incubation set of cells left, and with n=2 (for each time point) for the 8 hours post-incubation set of cells.
The strips were then washed (3×15 minutes) with fading solution (20% MeOH, 7% acetic acid) and dried.
For visualization of molecular weight bands, the membrane was immersed in Ponceau reagent (0.05% Ponceau, 5% acetic acid) for a few minutes, and then washed twice with TTN (10 mM Tris pH 7.4, 0.2% TWEEN 20, 170 mM NaCl) and once with water. The membrane was blocked overnight in TTN containing 5% milk (1% fat) (blocking TTN) and incubated for 90 minutes with PY20 antiphosphotyrosine antibody (Santa Cruz Biotechnology Inc., Santa Cruz, USA) diluted 1:2,000 in blocking TTN.

[2] = target: EGFR-TK autophosphorylation in intact A431 cells (Homo sapiens, UniProt P00533); experiment: cell-based
Method: Autophosphorylation Inhibition Experiments in Intact A431 Cells:
A431 cells (10^6) were seeded in 6-well plates and grown to 60–80% confluence in DMEM (high glucose) containing 10% fetal calf serum (FCS) and antibiotics at 37° C. The cells were then exposed to serum-free medium, at 37° C., for 18 hours.
Irreversibility assay: Variable concentrations of the inhibitor, ranging from 0.05 nM to 50 nM, were added to A431 cells for 2 hours incubation. The inhibitor was diluted in vehicle/DMSO and the final concentration of DMSO was 0.05% in each well). The medium was replaced thereafter with an inhibitor/FCS-free medium and the cells were left for either 2 or 8 hours, at 37° C. During the 8 hours period, the medium was changed three more times. After the post-incubation period, the cells were stimulated with EGF (20 ng/ml) for 5 minutes and then washed with PBS. Whole-cell lysates were obtained by scraping the cells into the well with 0.4 ml of Leammli buffer (10% glycerol, 3% sodium dodecyl sulfate, 5% b-mercaptoethanol, 50 mM Tris pH 6.8) that contained 0.001% bromophenol blue, and boiling for 5 minutes.
Western blots: Identical protein amounts from each lysate sample were loaded onto polyacrylamide gel (6% or 10%), separated by electrophoresis (Hoefer Pharmacia Diotech Inc., San Francisco, USA) and transferred to nitrocellulose membrane (power supply: EPS 500/400, Amersham Pharmacia Biotech; nitrocellulose extra blotting membranes: Sartorius A G, Goettingen, Germany). A standard high molecular weight solution was loaded as a reference. For visualization of molecular weight bands, the membrane was immersed in Ponceau reagent (0.05% Ponceau, 5% acetic acid) for a few minutes, and then washed twice with TTN (10 mM Tris pH 7.4, 0.2% TWEEN 20, 170 mM NaCl) and once with water. The membrane was blocked overnight in TTN containing 5% milk (1% fat) (blocking TTN) and incubated for 90 minutes with PY20 antiphosphotyrosine antibody (Santa Cruz Biotechnology Inc., Santa Cruz, USA) diluted 1:2,000 in blocking TTN. The membrane was then washed with TTN (3×5 minutes), incubated for 90 minutes with a horseradish peroxidase-conjugated secondary antibody (Goat anti-mouse IgG H+L, Jackson ImResearch Laboratories, Inc, diluted 1:10,000 in blocking TTN), and finally washed again with TTN (3×5 minutes). The membrane was incubated in a luminol-based solution (1 minute, 0.1 M Tris pH 8.5, 250 μM luminol, 400 μM p-cumaric acid, 0.033% H2O2) and visualized using chemiluminescent detection.
Quantification of the EGFR-P (protein) bands density obtained was performed using Adobe Photoshop 5.0ME and NIH image 1.16/ppc programs.

A431 tumor [3] = experiment: Positron Emission Tomography studies in tumor bearing nude rats; assay type: in vivo, rat; conditions: for bladder excretion (PET coronal views): FIG. 12
Method: (§1) WAG rnu/rnu male rats (300–400 grams) were injected s.c. in the left or right hind limb, or in the neck, with A431 cells (1×10^7 in 200 μl sterile PBS). Tumor growth was monitored every 2–3 days by calipers. One to two weeks after inoculation, the rats were ready to be used in the following in-vivo biodistribution, metabolic and PET studies. Tumor mass ranging between 2 and 3 grams were used in these experiments.
Positron Emission Tomography studies: Preliminary dynamic PET scans were performed on a Positron Corporation HZL/R scanner (intrinsic spatial resolution: in-plane 5.8 mm, axial 6.3 mm). Rats were anaesthetized with pentothal (85 mg/Kg) and placed supine on a flat polystyrene foam support with feet taped to the support, so as to minimize movements. […] The PET data were normalized for variations in detector sensitivity, and corrected for wobble, randoms, scatter and deadtime. Attenuation correction was applied using the measured transmission scan data. PET images of the Posicam system (Positron Corporation) were reconstructed by filtered back-projection using a Butterworth filter (cut-off 0.2 cycles/mm, order 10). […] These experiments were conducted with the same rats, two days after the first set of experiments.

A431 tumor [4] = experiment: Biodistribution in tumor (A431) bearing rats; assay type: in vivo, rat; conditions: for tumor/blood ratios: data not shown; for course of tumor uptake with time / tumor uptake: tumor (A431) bearing rats
Method: as §1, with “experiments. Biodistribution: […] Animals were sacrificed at specific time points (between 0 and 1 hour) by means of CO2 asphyxiation. Blood and certain organs and tissues including tumors were collected or excised, counted in a gamma-counter and weighed. % ID/organ, % ID/gram of tissue and tissue/blood uptake ratios were calculated.” for “experiments.”

[5] = Biological stability (metabolism) in blood, liver and tumor of rats; assay type: in vivo, rat
Method: as §1, with “experiments. Biological Stability: […] In general, control rats were injected with the radiolabeled compounds and sacrificed at several time points. […] Ether was then added and the samples were counted in a gamma-counter. Blood, homogenized liver and tumor samples were extracted and the extracted fractions were measured for activity in a gamma-counter, spotted onto TLC, and the radioactivity was detected with phosphor imaging plates.” for “experiments.”

A431 cells = experiment: Specific binding measurements in intact A431 cells; parameters: species or system human
Method: Specific Binding Measurements in Intact A431 Cells: […] After incubation, cells were harvested with a cell harvester (Brandel […], model […], Brandel, Gaithersburg, Md., USA) and were counted in a gamma-counter (1480 WizardTM 3''). The specific binding of the radiolabeled inhibitor was calculated by subtracting the radioactivity level of cells pre-incubated with the non-labeled inhibitor from the radioactivity level of cells pre-incubated with the vehicle only.

EGFR-TK autophosphorylation in intact A431 cells, sequence (P00533 25-1210): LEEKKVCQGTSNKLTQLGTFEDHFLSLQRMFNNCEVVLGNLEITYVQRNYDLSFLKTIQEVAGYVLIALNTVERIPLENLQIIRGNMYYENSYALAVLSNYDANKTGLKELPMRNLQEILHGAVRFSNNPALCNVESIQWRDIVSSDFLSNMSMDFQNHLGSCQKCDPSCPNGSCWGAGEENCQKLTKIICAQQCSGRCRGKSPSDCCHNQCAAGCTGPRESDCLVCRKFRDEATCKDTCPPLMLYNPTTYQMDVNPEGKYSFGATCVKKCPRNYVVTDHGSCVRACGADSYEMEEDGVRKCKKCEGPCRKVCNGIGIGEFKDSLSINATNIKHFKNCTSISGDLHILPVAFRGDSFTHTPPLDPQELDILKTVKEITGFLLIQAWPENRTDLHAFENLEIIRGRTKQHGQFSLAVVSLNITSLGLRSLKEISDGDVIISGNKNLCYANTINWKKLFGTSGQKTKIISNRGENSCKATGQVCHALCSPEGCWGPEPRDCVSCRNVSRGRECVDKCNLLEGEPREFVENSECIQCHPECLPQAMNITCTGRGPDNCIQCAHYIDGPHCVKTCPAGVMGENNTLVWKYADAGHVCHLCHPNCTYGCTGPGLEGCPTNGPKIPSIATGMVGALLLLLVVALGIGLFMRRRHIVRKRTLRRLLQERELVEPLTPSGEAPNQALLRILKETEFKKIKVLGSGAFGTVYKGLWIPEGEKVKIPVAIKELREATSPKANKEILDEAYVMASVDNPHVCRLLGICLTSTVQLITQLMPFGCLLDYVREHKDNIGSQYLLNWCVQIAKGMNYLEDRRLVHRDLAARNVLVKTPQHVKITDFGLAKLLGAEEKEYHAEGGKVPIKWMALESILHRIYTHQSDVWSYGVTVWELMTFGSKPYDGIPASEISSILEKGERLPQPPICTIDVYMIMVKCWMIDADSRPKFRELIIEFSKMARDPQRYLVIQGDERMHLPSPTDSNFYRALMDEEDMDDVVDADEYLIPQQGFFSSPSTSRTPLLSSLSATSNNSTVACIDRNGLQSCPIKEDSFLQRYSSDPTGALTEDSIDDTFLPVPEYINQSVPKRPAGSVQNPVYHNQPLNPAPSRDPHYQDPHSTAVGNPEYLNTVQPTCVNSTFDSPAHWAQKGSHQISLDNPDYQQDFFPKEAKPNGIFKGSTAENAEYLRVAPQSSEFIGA
EGFR-TK, sequence (P00533 25-1210): as above
EGFR autophosphorylation in intact A431 cells, sequence (P00533 25-1210): as above

C=CC(=O)Nc1ccc2ncnc(Nc3cc(Cl)c(Cl)cc3F)c2c1 [Compound 3, N-{4-[(3,4-dichloro-6-fluorophenyl)amino]quinazoline-6-yl}acrylamide]
IC50 (EGFR-TK; IC50app of an exemplary dose-response autophosphorylation inhibition curve, single exemplary curve (FIG. 1 / FIG. 5), r2 0.995): 0.051 nM | IC50 (EGFR-TK; apparent IC50 average (IC50app), EGFR-TK autophosphorylation, average of 4 independent dose-response curves (n=4), spread ±0.016): 0.042 nM | inhibition of EGFR autophosphorylation ([1]; 9 minutes incubation time, 1 hour post-incubation (FIG. 4), compared with the 80% inhibition of FIG. 3): same effect | inhibition at 0.03 µM ([1]; A-431, 10 minutes incubation time, 8 hours post-incubation (FIG. 3)): 80% | inhibition at 0.0005 µM ([2]; A-431, read-out: inhibition of EGFR autophosphorylation, 0.5 nM inhibitor, 2 h incubation, 2 hours in inhibitor/FCS-free media): ~35% | inhibition at 0.005 µM ([2]; A-431, read-out: inhibition of EGFR autophosphorylation, 5 nM inhibitor, 2 h incubation, 2 hours in inhibitor/FCS-free media): 40% | inhibition at 0.05 µM ([2]; A-431, read-out: inhibition of EGFR autophosphorylation, 50 nM inhibitor, 2 h incubation, 2 hours in inhibitor/FCS-free media): ~100% | inhibition at 0.05 µM ([2]; A-431, read-out: inhibition of EGFR autophosphorylation, 50 nM inhibitor, 2 h incubation, 8 hours post-incubation): ~97%

OC[C@H]1O[C@@H](O)[C@H]([18F])[C@@H](O)[C@@H]1O [FDG, reference compound]
bladder excretion (PET coronal views) (A431 tumor [3]): excreted in the bladder in great quantities

C=CC(=O)Nc1ccc2ncnc(Nc3cc(Cl)c(Cl)cc3F)c2c1 [carbon-11 labeled Compound 3, carbon-11 labeled N-{4-[(3,4-dichloro-6-fluorophenyl)amino]quinazoline-6-yl}acrylamide]
tumor/blood ratios (A431 tumor [4]; 15 minutes post administration): 0.09 % ID/gram | tumor/blood ratios (A431 tumor [4]; 30 minutes post administration): 0.05 % ID/gram | course of tumor uptake with time (A431 tumor [4]): decreased with time | tracer remaining intact in blood ([5]; 15 minutes post injection): 20% | metabolites in liver and blood (TLC) ([5]; 30 minutes post injection, tumor bearing rats): detected | tracer remaining intact in blood ([5]; 45 minutes post injection): no tracer was remained

CN(C)CC=CC(=O)Nc1ccc2ncnc(Nc3cc(Cl)c(Cl)cc3F)c2c1 [carbon-11 labeled Compound 4, carbon-11 labeled N-{4-[(3,4-dichloro-6-fluorophenyl)amino]quinazoline-6-yl}-4-(dimethylamino)-2-butenamide]
increase of specific binding as compared to carbon-11 labeled Compound 3 (A431 cells; A431 cells): 10% | specific binding to A431 cells (A431 cells; carbon-11 labeled tracer, non-specific binding from cells pre-incubated with non-labeled inhibitor): 78% | tumor uptake (A431 tumor [4]; 15 minutes post-administration): 0.25 % ID/gram | tumor uptake (A431 tumor [4]; 30 minutes post-administration): 0.24 % ID/gram | course of tumor uptake with time (A431 tumor [4]): remained constant | course of intact tracer in blood with time ([5]; 15 to 45 minutes post injection): no substantial reduction with time | tracer remaining intact in blood ([5]; 15 minutes post injection): 60% | metabolites (TLC) ([5]; 60 minutes post injection, tumor bearing rats): no metabolites | PET visualization of the tumor (A431 tumor [3]; 250 μCi via jugular vein, dynamic scan): visualized throughout a 1-hour scan | bladder excretion (PET coronal views) (A431 tumor [3]): slower and minimal bladder excretion | specific binding of radiolabeled inhibitor in tumor (A431 tumor [3]; PET, alone versus blocked with non-labeled compound): 50% | decrease of liver activity uptake (A431 tumor [3]; during one hour scanning time): 25% | course of activity uptake in the tumor (A431 tumor [3]; during the first one hour scan): remained constant | tumor uptake of tracer after pre-injection of non-labeled Compound 4 (A431 tumor [3]; non-labeled Compound 4 given 10 minutes before tracer, same rats 2 days later): blocked | total activity uptake in tumor when administered alone as compared with uptake after pre-injecting non-labeled compound (A431 tumor [3]; time activity curves of the tumor region (FIG. 10)): doubled
